O=P(O)(O)c1ccccc1-c1ccccc1O
Conditions | solubility (mole fraction)
in chlorobenzene, 300.97 K | 0.013
in chlorobenzene, 304.47 K | 0.0149
in chlorobenzene, 308.86 K | 0.0156
in chlorobenzene, 313.71 K | 0.0195
in chlorobenzene, 319.15 K | 0.0274
in chlorobenzene, 325.56 K | 0.036
in chlorobenzene, 332.4 K | 0.047
in chlorobenzene, 338.93 K | 0.0597
in chlorobenzene, 342.74 K | 0.07
in chlorobenzene, 346.96 K | 0.0853
in chlorobenzene, 349.4 K | 0.0974
in chlorobenzene, 352.87 K | 0.116
in chlorobenzene, 355.3 K | 0.131
in water, 308.6 K | 0.000258
in water, 314.7 K | 0.000336
in water, 320.97 K | 0.000396
in water, 332.2 K | 0.000496
in water, 337.7 K | 0.000579
in water, 342.4 K | 0.000688
in water, 347.77 K | 0.000763
in water, 352.6 K | 0.000859
in water, 358.3 K | 0.000984
in water, 362.37 K | 0.00115

From BigSolDB 2.1
